# Data reported in US12528815B2, “5-amino-8-(4-pyridyl)-[1,2,4]triazolo[4,3-c]pyrimidin-3-one compounds for use against cancer” (Nxera Pharma UK Limited, priority 2020, dated 2026).
# Biological target: T1, human adenosine A2A receptor (Homo sapiens, UniProt P29274)
# T1 construct: expressed in transfected cells; host or cells: HEK293 cells infected with BacMam
# Experiment: Inhibition binding assay, human adenosine A2A receptor membranes, [3H]ZM241385
# Details: 1 nM [3H]ZM241385, HEK293-hA2A membranes, 25° C., 1 h; IC50 converted to Ki with Cheng-Prusoff; read-out: A2A pKi (converted)
# Description: Inhibition binding assays were performed using 0.2 μg of membranes prepared from HEK293 cells infected with BacMam human adenosine A2A receptor or 1.4 μg of membranes prepared from HEK293 cells infected with BacMam human adenosine A1 receptor. Membranes were incubated in 50 mM Tris-HCl (HEK293-hA2A; pH 7.4) or 50 mM Tris-HCl, 100 mM NaCl, 10 mM MgCl2 (CHO-hA1; pH 7.4) in the presence of varying concentrations of test compound and 1 nM [^3H]ZM241385 (HEK293-hA2A) or [^3H]DPCPX (CHO-hA1) at 25° C. for 1 h. The assay was then terminated by rapid filtration onto GF/B grade Unifilter plates using a TomTec cell harvester, followed by 5×0.5 ml washes with ddH2O. Nonspecific binding was defined in the presence of 1 μM CGS15943 (HEK293-hA2A) or 1 μM DPCPX (CHO-hA1). Bound radioactivity was determined by liquid scintillation counting and inhibition curves were analysed using a four-parameter logistic equation. IC50 values were converted to Ki values with the Cheng-Prusoff equation using a KD value derived from saturation binding studies.
# T1 sequence (P29274 whole entry): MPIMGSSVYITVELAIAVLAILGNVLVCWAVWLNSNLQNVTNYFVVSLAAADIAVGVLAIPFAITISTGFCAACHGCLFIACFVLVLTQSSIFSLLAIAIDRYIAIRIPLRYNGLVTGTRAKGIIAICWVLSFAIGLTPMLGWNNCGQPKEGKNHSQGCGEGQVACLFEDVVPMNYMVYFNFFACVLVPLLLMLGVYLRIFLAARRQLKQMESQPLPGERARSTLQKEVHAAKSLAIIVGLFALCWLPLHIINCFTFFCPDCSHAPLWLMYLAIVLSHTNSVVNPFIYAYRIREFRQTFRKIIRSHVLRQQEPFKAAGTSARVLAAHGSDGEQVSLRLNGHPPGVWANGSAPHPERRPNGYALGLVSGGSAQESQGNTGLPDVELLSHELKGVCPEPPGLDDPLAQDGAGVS
row,Ki [µM],Compound
1,0.0158,"Cc1cc(-c2c(-c3ccccc3)nc(N)n3c(=O)n(C[C@H]4CN(C)CCO4)nc23)cc(C)n1 [Example 2-74, 5-amino-8-(2,6-dimethyl-4-pyridyl)-2-[[(2R)-4-methylmorpholin-2-yl]methyl]-7-phenyl-[1,2,4]triazolo[4,3-c]pyrimidin-3-one]"
2,0.1,"Cc1cc(-c2c(-c3ccccc3)nc(N)n3c(=O)n(C[C@@H]4CN(C)CCN4C)nc23)cc(C)n1 [Example 2-87, (S)-5-amino-2-((1,4-dimethylpiperazin-2-yl)methyl)-8-(2,6-dimethylpyridin-4-yl)-7-phenyl-[1,2,4]triazolo[4,3-c]pyrimidin-3(2H)-one]"
3,0.0251,"CNC(=O)CCn1nc2c(-c3cc(C)nc(C)c3)c(-c3ccccc3)nc(N)n2c1=O [Example 2-113, 3-(5-amino-8-(2,6-dimethylpyridin-4-yl)-3-oxo-7-phenyl-[1,2,4]triazolo[4,3-c]pyrimidin-2(3H)-yl)-N-methylpropanamide]"
4,0.1,"COC(=O)N1CCCC(NCCn2nc3c(-c4cc(C)nc(C)c4)c(-c4ccccc4)nc(N)n3c2=O)C1 (stereo not shown) [Example 2-106, methyl 3-[2-[5-amino-8-(2,6-dimethyl-4-pyridyl)-3-oxo-7-phenyl-[1,2,4]triazolo[4,3-c]pyrimidin-2-yl]ethylamino]piperidine-1-carboxylate]"
5,0.00631,"Cc1cc(-c2c(-c3ccccc3)nc(N)n3c(=O)n(CCN4CCC5CC54)nc23)cc(C)n1 (stereo not shown) [Example 2-95, 2-(2-(2-azabicyclo[3.1.0]hexan-2-yl)ethyl)-5-amino-8-(2,6-dimethylpyridin-4-yl)-7-phenyl-[1,2,4]triazolo[4,3-c]pyrimidin-3(2H)-one]"
6,0.00794,"Cc1cc(-c2c(-c3ccccc3)nc(N)n3c(=O)n(C[C@H]4CN(C)CCN4C)nc23)cc(C)n1 [Example 2-85, (R)-5-amino-2-((1,4-dimethylpiperazin-2-yl)methyl)-8-(2,6-dimethylpyridin-4-yl)-7-phenyl-[1,2,4]triazolo[4,3-c]pyrimidin-3(2H)-one]"
7,0.0316,"Cc1cc(-c2c(-c3ccccc3)nc(N)n3c(=O)n(C[C@@H]4CNCCO4)nc23)cc(C)n1 [Example 2-71, (S)-5-amino-8-(2,6-dimethylpyridin-4-yl)-2-(morpholin-2-ylmethyl)-7-phenyl-[1,2,4]triazolo[4,3-c]pyrimidin-3(2H)-one]"
8,0.0251,"Cc1cc(-c2c(-c3ccccc3)nc(N)n3c(=O)n(C[C@H]4CNCCN4C)nc23)cc(C)n1 [Example 2-86, 5-amino-8-(2,6-dimethyl-4-pyridyl)-2-[[(2R)-1-methylpiperazin-2-yl]methyl]-7-phenyl-[1,2,4]triazolo[4,3-c]pyrimidin-3-one]"
9,0.0794,"Cc1cc(-c2c(-c3ccccc3)nc(N)n3c(=O)n(C[C@@H]4CNCCN4C)nc23)cc(C)n1 [Example 2-88, 5-amino-8-(2,6-dimethyl-4-pyridyl)-2-[[(2S)-1-methylpiperazin-2-yl]methyl]-7-phenyl-[1,2,4]triazolo[4,3-c]pyrimidin-3-one]"
10,0.0316,"Cc1cc(-c2c(-c3ccc(F)cc3)nc(N)n3c(=O)n(CC4CCCN=N4)nc23)cc(CO)n1 (stereo not shown) [Example 2-93, 5-amino-7-(4-fluorophenyl)-8-[2-(hydroxymethyl)-6-methyl-4-pyridyl]-2-(3,4,5,6-tetrahydropyridazin-3-ylmethyl)-[1,2,4]triazolo[4,3-c]pyrimidin-3-one]"
11,0.1,"Cc1cc(-c2c(-c3ccccc3)nc(N)n3c(=O)n(C[C@H]4COCCN4C(=O)OC(C)(C)C)nc23)cc(C)n1 [Example 2-75, tert-butyl (3S)-3-[[5-amino-8-(2,6-dimethyl-4-pyridyl)-3-oxo-7-phenyl-[1,2,4]triazolo[4,3-c]pyrimidin-2-yl]methyl]morpholine-4-carboxylate]"
12,0.126,"Cc1cc(-c2c(-c3ccccc3)nc(N)n3c(=O)n(CCC4CCN(CCC(=O)O)CC4)nc23)cc(C)n1 [Example 2-110, 3-[4-[2-[5-amino-8-(2,6-dimethyl-4-pyridyl)-3-oxo-7-phenyl-[1,2,4]triazolo[4,3-c]pyrimidin-2-yl]ethyl]-1-piperidyl]propanoic acid]"
13,0.02,"Cc1cc(-c2c(-c3ccccc3)nc(N)n3c(=O)n(CCN4CCCC(C)C4)nc23)cc(C)n1 (stereo not shown) [Example 2-98, 5-amino-8-(2,6-dimethyl-4-pyridyl)-2-[2-(3-methyl-1-piperidyl)ethyl]-7-phenyl-[1,2,4]triazolo[4,3-c]pyrimidin-3-one]"

# More lines, now with the values behind:
row,Compound,Ki [µM]
1,"COc1cc(-c2c(-c3ccc(F)cc3)nc(N)n3c(=O)n(Cc4ccc(C)cn4)nc23)cc(CO)n1 [Example 1-67, 5-amino-7-(4-fluorophenyl)-8-[2-(hydroxymethyl)-6-methoxy-4-pyridyl]-2-[(5-methyl-2-pyridyl)methyl]-[1,2,4]triazolo[4,3-c]pyrimidin-3-one]",0.000794
2,"Cc1cc(-c2c(-c3ccccc3)nc(N)n3c(=O)n(CCN(C)C4(CO)CCc5ccccc5C4)nc23)cc(C)n1 (stereo not shown) [Example 1-99, 5-amino-8-(2,6-dimethyl-4-pyridyl)-2-[2-[[2-(hydroxymethyl)tetralin-2-yl]-methyl-amino]ethyl]-7-phenyl-[1,2,4]triazolo[4,3-c]pyrimidin-3-one]",0.0398
3,"Cc1cc(-c2c(-c3ccccc3)nc(N)n3c(=O)n(Cc4ccc(C#N)cn4)nc23)cc(CO)n1 [Example 1-54, 6-[[5-amino-8-[2-(hydroxymethyl)-6-methyl-4-pyridyl]-3-oxo-7-phenyl-[1,2,4]triazolo[4,3-c]pyrimidin-2-yl]methyl]pyridine-3-carbonitrile]",0.158
4,"CCNC(=O)OCCn1nc2c(-c3cc(C)nc(C)c3)c(-c3ccccc3)nc(N)n2c1=O [Example 2-16, 2-[5-amino-8-(2,6-dimethyl-4-pyridyl)-3-oxo-7-phenyl-[1,2,4]triazolo[4,3-c]pyrimidin-2-yl]ethyl N-ethylcarbamate]",0.02
5,"Cc1cnn(-c2nc(N)n3c(=O)n(CCC(F)(F)F)nc3c2-c2cc(C)nc(C)c2)c1 [Example 2-41, 5-amino-8-(2,6-dimethyl-4-pyridyl)-7-(4-methylpyrazol-1-yl)-2-(3,3,3-trifluoropropyl)-[1,2,4]triazolo[4,3-c]pyrimidin-3-one]",0.0316
6,"Cc1cc(-c2c(-c3ccccc3)nc(N)n3c(=O)n(CCC(N)=O)nc23)cc(C)n1 [Example 2-31, 3-[5-amino-8-(2,6-dimethyl-4-pyridyl)-3-oxo-7-phenyl-[1,2,4]triazolo[4,3-c]pyrimidin-2-yl]propanamide]",0.0251
7,"Cc1cc(-c2c(-c3ccc(F)cc3)nc(N)n3c(=O)n(Cc4ccc(F)cn4)nc23)cc(CO)n1 [Example 1-59, 5-amino-7-(4-fluorophenyl)-2-[(5-fluoro-2-pyridyl)methyl]-8-[2-(hydroxymethyl)-6-methyl-4-pyridyl]-[1,2,4]triazolo[4,3-c]pyrimidin-3-one]",0.00158
8,"Cc1cc(-c2c(-c3ccco3)nc(N)n3c(=O)n(CCC(F)(F)F)nc23)cc(C)n1 [Example 2-42, 5-amino-8-(2,6-dimethyl-4-pyridyl)-7-(2-furyl)-2-(3,3,3-trifluoropropyl)-[1,2,4]triazolo[4,3-c]pyrimidin-3-one]",0.001
9,"Cc1cc(-c2c(-c3ccccc3)nc(N)n3c(=O)n(C(C)C)nc23)cc(C)n1 [Example 2-4, 5-amino-8-(2,6-dimethyl-4-pyridyl)-2-isopropyl-7-phenyl-[1,2,4]triazolo[4,3-c]pyrimidin-3-one]",0.0501
